For the experiment, the target named is T1, phosphoglycerate kinase 1 (PGK1) (Homo sapiens, UniProt P00558).
T1 construct: Flag-tagged PGK1, whole-length cDNA, purified from HEK293T cells
T1 sequence (P00558 2-417): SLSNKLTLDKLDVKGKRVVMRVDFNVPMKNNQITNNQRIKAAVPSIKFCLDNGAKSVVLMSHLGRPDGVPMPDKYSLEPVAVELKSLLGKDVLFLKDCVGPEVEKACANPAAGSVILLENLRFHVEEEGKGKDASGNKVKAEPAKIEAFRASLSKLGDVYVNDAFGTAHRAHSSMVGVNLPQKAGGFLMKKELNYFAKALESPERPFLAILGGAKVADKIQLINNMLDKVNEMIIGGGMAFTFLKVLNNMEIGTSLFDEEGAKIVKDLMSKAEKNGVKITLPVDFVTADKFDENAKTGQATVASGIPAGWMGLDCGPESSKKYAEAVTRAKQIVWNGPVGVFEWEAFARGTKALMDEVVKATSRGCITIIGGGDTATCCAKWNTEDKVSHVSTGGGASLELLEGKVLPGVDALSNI
Nature of the experiment: in vitro enzymatic assay of purified Flag-PGK1, GAPDH-coupled, NADH decrease at […] nm. In kind it is biochemical.

As to `Nc1ccn([C@@H]2O[C@H](CO)[C@@H](O)C2(F)F)c(=O)n1` [gemcitabine], the concentration for half-maximal inhibition (IC50) (as a rule, the concentration that inhibits the measured activity by half) amounted to 16.3 nM.

Values taken from PMC10039899, “Integrative proteogenomic characterization of early esophageal cancer” (Nature Communications, 2023).
